According to patent publication US8968715B2, “Drug delivery systems for photodynamic therapy” (The University of British Columbia, priority 2000, dated 2015):
Entries after “also recorded” stand apart in the source; their conditions may differ.

Assays:
[1] = BPD-MA drug loading and formulation stability in Pluronic copolymers (melt method, absorbance); format: physicochemical; conditions: 3 days storage at room temperature
Method: In this experiment the use of copolymers for drug loading capability and formulation stability over a 3 day period was examined using the photosensitizer drug BPD-MA. The criteria for choosing the copolymers were based on the solution and viscosity characteristics described in Example 1. The ‘melt’ method is used for the preparation and screening of the large number of samples and is described as follows. At temperatures above 50° C., poloxamers are in their molten state and serve as excellent solvents for tetrapyrrolic compounds, thus avoiding the need for pre-dissolution of drugs in organic solvents. 5 mg of BPD-MA was dissolved with the aid of vortex mixing and sonication at 55° C. into the polymer ‘melts’ to give a final concentration of 5% to 20% w/v of the respective Pluronic. To each melt sample, 2.5 ml of PBS was added to give a final BPD-MA concentration of 2 mg/ml. Samples were allowed to equilibrate to room temperature before drug loading was determined at time zero (T0). 1 ml of suspension was removed for centrifugation (Microfuge, 14,000 rpm, 30 min), and the rest filtered through 0.2 μm filters (Millipore). The filtrate was diluted 1:100 in PBS and the absorbance at 690±3 nm determined (uv-vis spectrophotometer Beckman DU-6401). This procedure was repeated 72 hours later following storage at room temperature and the absorbance measurement (T72).

[2] = system: L1210 cells; experiment: Cellular uptake of photosensitizer formulations; format: cell-based; conditions: 3 μg/ml, FIG. 1
Method: The protocol for setting up the cell cultures and conditions for the cellular assay essentially followed Richter et al. (Proc. SPIE, 2078: 293-304, September 1993). L1210 cells in DMEM and 10% FBS (single experiment, 3 sets) were incubated with the formulations at a concentration of 3 μg/ml and examined for uptake in the cells over time. Cells were recovered by centrifugation, the pellet briefly rinsed, and the cells lysed by freeze thawing in the presence of 2% Triton X-100®. An equal volume of methanol was added and fluorescence was read at 694 nm (λex 440 nm).

[3] = Drug incorporation into 10% w/v Pluronic P123; format: physicochemical; conditions: for Drug concentration formulated in 10% P123: 10% P123, non-optimized systems
Method: Using formulation methods described in Example 5, the aim was to incorporate 2 mg/ml of B-B3 into 10% w/v P123. It was shown by this method that the B-B3 can typically be incorporated at ˜1.8 mg/ml drug (based on absorbance readings and a molar extinction coefficient of 30425) 24 h post-hydration. This translates to approximately 10% drug loss. Unincorporated drug undergoes aggregation in aqueous solutions, and is characterized by the appearance of a 730 nm absorbance peak. Although the formulations can be made completely aggregate free by centrifugation or sterile filtration through 0.2 μm filters, this adds another step in the manufacturing process, which can be avoided by increasing the copolymer:drug ratio.

[4] = Deposition of BPD-MA / F127 formulations on lactose crystals: hydration and filtration; format: physicochemical
Method: In this experiment the deposition of the photosensitizer BPD-MA with the block copolymer Pluronic® F127 onto the sugar lactose was examined. Formulations containing 5% (w/v) and a 10% (w/v) F127 were tested. 0.5 g lactose and 10 mg BPD-MA were added to two rotary evaporation flasks. A stock solution of […] F127 was prepared in CH2Cl2. 1.25 ml (for 5% w/v) and 2.5 ml (for 10% w/v) F127 stock solution was added to each flask. The final volume in each flask was made up to 5.0 ml with CH2Cl2 and the components mixed to ensure complete dissolution. The solvent was removed by rotary evacuation at 50° C., and the flask left under vacuum for a further 15 min at 23° C. Micro-thin film deposits were scraped from the walls and hydrated in 5 ml water at 50° C. The formulations were filtered twice using 0.2 μm syringe filters (Acrodisc, polysulphone).
The experimental conditions and components were the same as Example 15 with the exception of the following changes. A stock of 0.2 mg/ml F127 was prepared in ethanol and 0.65 ml (2.5% w/v) and 1.25 ml (5% w/v) of the stock solution was added to two flasks. The final volume was made up to 5.0 ml with ethanol and the contents dissolved with warming. Ethanol was removed by rotary evacuation at 50° C., left under vacuum for 15 min at room. Micro-thin film deposits were scraped from the walls and dissolved in 5 ml water at 50° C. as previously described. […]

[5] = system: M1 rhabdomyosarcoma tumor cells; experiment: Tumor recurrence after PDT in tumor mouse model; format: in vivo, DBA/2 mouse
Method: Photosensitizer formulations were prepared in 10% w/v Pluronics as described in Example 4. BPD-MA was formulated in F127. B-ring compounds B-EA6 and B-B3, were prepared in P123 due to insufficient drug loading in F127. Liposomal BPD-MA formulation was Verteporfin™ and B-ring compounds were formulated in the same lipid composition. Where DMSO/plasma preparations were made, the DMSO dissolved drug was added directly to mouse plasma and the drug association with different plasma components was observed.
In these experiments the tumor model used was the DBA/2 mouse (males) inoculated intradermally with M1 rhabdomyosarcoma tumor cells (M1, ATCC. When tumors reached a diameter of 4-6 mm, the mice (n=10, unless other wise stated) were treated with photodynamic therapy (PDT). PDT involved intravenous injection of the formulated drug in 0.2 mL volume of PBS. This was followed by exposure of the tumor region to laser light (Argon pumped dye laser (5W), 690 nm, 50 J/cm^2) 15 min later. Animals were then monitored for tumor recurrence over a 20 day period post treatment.

[6] = pH studies of formulation stability; format: physicochemical; conditions: poloxamer formulations
Description: This necessitates hydration of the solid drug-polymer with a very mild buffer to counteract acidification which occurs upon use of sterile packed distilled water as commonly practiced in clinical settings. Behavior of poloxamers is unaffected by pH, and the use of buffers would be entirely dependent on ionizable groups present on the drug substance.

[7] = system: MRL/lpr mouse; experiment: Transcutaneous PDT treatment of arthritis, ankle width; format: in vivo; conditions: 0.5 mg/kg i.v.
Method: Arthritis in the MRL/lpr mouse strain was enhanced by giving 2 intradermal injections (thoracic and inguinal sites) with 0.05 ml of complete Freunds adjuvant containing 10 mg/ml heat-inactivated M. tuberculosis. PDT was given on days 0, 10 and 20 following CFA treatment. PDT was carried out as follows; 3 groups of MRL/lpr mice were injected intravenously with B-B3 at 0.5 mg/kg (copolymer or liposomal formulations), after which they were protected from light. The third group was injected with copolymer alone at an equivalent copolymer concentration to that found in the formulation. An hour later, they were exposed to light at 80 J/cm^2 for […] (8 mW/cm^2).
Ankle width measurements were taken every 5 days prior to PDT treatment.

Row | Compound | Stability of BPD-MA formulations in Pluronic [1] | Incubation time at which uptake saturation level is achieved ([2]; liposomal formulation) | Incubation time of 50% uptake ([2]; liposomal formulation) | Drug concentration formulated in 10% P123 [3] | Filtration through 0.2 μm filter ([4]; 2.5% and 5% w/v F127 on lactose, ethanol as solvent) | Drug loss on filtration through 0.2 μm filters ([4]; 5% w/v and 10% w/v F127 on lactose, CH2Cl2 as solvent) | Percent (%) Mice Tumor Free ([5]; Liposomal, 1.0 mg/kg, Day 7) | Percent (%) Mice Tumor Free ([5]; Liposomal, 1.0 mg/kg, Day 14) | Percent (%) Mice Tumor Free ([5]; Liposomal, 1.0 mg/kg, Day 20) | Percent (%) Mice Tumor Free ([5]; Pluronic F127, 1.0 mg/kg, Day 7) | Percent (%) Mice Tumor Free ([5]; Pluronic F127, 1.0 mg/kg, Day 14) | Percent (%) Mice Tumor Free ([5]; Pluronic F127, 1.0 mg/kg, Day 20) | Likelihood to remain tumor free, poloxamer formulation compared to liposomal BPD-MA ([5]; end of the 20 day period) | pH dependence of formulation stability [6] | Incubation time of 50% uptake level ([2]; copolymer Pluronic P123 formulation) | Control of joint inflammation (increase in ankle swelling) ([7]; copolymer formulation, 80 J/cm^2, FIG. 2) | Control of joint inflammation (increase in ankle swelling) ([7]; liposomal formulation, after day 25) | Control of joint inflammation (increase in ankle swelling) ([7]; liposomal formulation, earlier part of the study, FIG. 2, 0.5 mg/kg) | Drug incorporated / retained 24 h post-hydration ([3]; aim 2 mg/ml into 10% w/v P123) | PDT efficacy in tumor model ([5]; plasma/DMSO preparation)
1 | benzoporphyrin derivative monoacid ring A [BPD-MA] | no loss of stability | 30 min | approximately 5 min | ≤ 4000 µg/mL | no resistance | no drug loss | 100% | 100% | 30% | 100% | 60% | 60% | twice as likely to remain tumor free |  |  |  |  |  |  | 
2 | C=Cc1c(C)c2cc3nc(cc4[nH]c(cc5nc(cc1[nH]2)C1(C)C5=CC=C(C(=O)OC)C1C(=O)OC)c(C)c4CCC(=O)OCCO)C(CCC(=O)OCCO)=C3C (stereo not shown) [B-EA6] |  |  |  |  |  |  |  |  |  |  |  |  |  | does not display any pH-dependency |  |  |  |  |  | 
3 | C=Cc1c(C)c2cc3nc(cc4[nH]c(cc5nc(cc1[nH]2)C1(C)C5=CC=C(C(=O)O)C1C(=O)OC)c(C)c4CCC(=O)OC)C(CCC(=O)OC)=C3C (stereo not shown) [B-B3] |  |  |  | approximately 1.8 mg/ml |  |  |  |  |  |  |  |  |  | detrimental to formulation stability | close to ‘zero’ incubation time | highly effective in controlling the inflammation | exacerbation of the inflammatory condition | improved suppression of the inflammation compared to controls; also recorded: better suppression of the inflammation compared to the controls | ~1.8 mg/mL | completely ineffective for PDT purposes
